Experimental findings from US20030013643A1, “Prevention and treatment of streptococcal and staphylococcal infection” (priority 2000, published 2003) are described below.

In one assay the test system is GAS. In words: GAS translocation through abraded human skin equivalent. The assay is classed as cell-based, Streptococcus pyogenes. Particulars: pre-treated at 2 mg/ml for 1 hour; 4 hour infection period. The protocol:
To examine GAS translocation in a model system similar to normal human skin, we utilized pseudo-organ cultures of human skin equivalent. This material is made by constructing a “dermis” that consists of human fibroblasts cultured in a collagen matrix; human foreskin keratinocytes are seeded on top of the dermal equivalent and cultured under conditions that promote differentiation into a stratified squamous epithelium with a stratum comeum. The histology of the human skin equivalent is very similar to that of normal human skin except for the absence of non-keratinocyte elements such as blood vessels and hematopoietic cells, nerves, and hair follicles. Since intact human skin is highly resistant to GAS infection, we simulated minor trauma to the superficial epidermis by abrading the surface of the skin equivalent with a cytology brush to introduce breaks in the stratum corneum. GAS were inoculated onto the surface of abraded skin equivalent that had either been pre-treated with nothing, HA, or AL at 2 mg/ml for 1 hour and translocation through the tissue was monitored by culture of GAS from the basal surface of the skin equivalent at intervals. As depicted in FIG. 10, HA inhibited translocation GAS by 91% (solid bars). In comparison the AL control prevented only 14% of bacteria from translocating through the skin equivalent during the 4 hour infection period. […]

For assay [1], the system named is Staphylococcus aureus (S. aureus, type 8). Description: Bacterial binding to human keratinocyte monolayers, S. aureus. Type of assay: cell-based. As to conditions: 1 mg/ml pre-incubation; multiplicity of infection 10; 1 hour. How it is done:
(§1) Keratinocyte monolayers were prepared as descibed above in Methods section and pre-incubated with 1 mg/ml alginate (AL, solid bars) or 1 mg/ml hyaluronic acid (HA, hatched bars) prior to surface inoculation (as described above in Methods) with either Group A Streptococcus (GAS, strain 950771), Group B Streptococcus (GBS, strain 515), Streptococcus pneumoniae (S. pneumo, type 6), or Staphylococcus aureus (S. aureus, type 8) at a multiplicity of infection of 10 bacteria per keratinocyte for 1 hour.

Assay [2] deals with Streptococcus pneumoniae (S. pneumo, type 6). In words: Bacterial binding to human keratinocyte monolayers, S. pneumoniae. Particulars: 1 mg/ml pre-incubation; multiplicity of infection 10; 1 hour. Type of assay: cell-based. The protocol: as §1
For assay [3], the system named is Group A Streptococcus (GAS, strain 950771). Description: Bacterial binding to human keratinocyte monolayers, GAS. Particulars: 1 mg/ml pre-incubation; multiplicity of infection 10; 1 hour. The assay is classed as cell-based. How it is done: as §1
A further assay relates to GAS 950771 or GAS 282. Description: GAS binding to and displacement from human keratinocyte monolayers. Particulars: 1 mg/ml. Type of assay: cell-based, Streptococcus pyogenes.

As to hyaluronic acid, the “inhibition of translocation of GAS through skin equivalent” value in the assay with GAS is listed as 91%. Also, the inhibition of binding result in assay [1], in assay [2] and in assay [3] was “more than 80%” in each case. The “inhibition of GAS binding to human cells” value with GAS 950771 or GAS 282 (GAS 950771 or GAS 282, not strain specific) was “block GAS binding to human cells”. Further, the “displacement of bound bacteria” value with GAS 950771 or GAS 282 (after 45 minutes) was “displaced bound GAS”.
